Assay results as given in ChEMBL document CHEMBL3044732, “Pyrazolecarboxylic acid derivative induces systemic acquired resistance in tobacco” (2003).
Calls of active or inactive are those of the source. The calls are words filed in the database; no cut-off is given here.

Columns and labels:
Nicotiana tabacum [1] = assay: Induction of N-gene mediated systemic acquired resistance against TMV in Nicotiana tabacum cv. Xanthi nc (tobacco) assessed as decrease in lesion size at 0.1 mg/pot applied by soil-drench 5 days prior to infection measured after 5 days relative to control; format: functional, organism-based
Nicotiana tabacum [2] = assay: Induction of systemic acquired resistance against Oidium in Nicotiana tabacum cv. Xanthi nc (tobacco) assessed as decrease in lesion size applied as soil-drench 5 days prior to infection measured after 5 days; format: functional, organism-based
Nicotiana tabacum [3] = assay: Induction of N-gene mediated systemic acquired resistance against TMV in transgenic Nicotiana tabacum cv. Xanthi nc (tobacco) expressing bacterial NahG assessed as decrease in lesion size at 0.1 to 2 mg/pot applied by soil-drench 5 days prior to infection measured after 5 days relative to control; format: functional, organism-based
Nicotiana tabacum [4] = assay: Induction of systemic acquired resistance in Nicotiana tabacum cv. Xanthi nc (tobacco) assessed as increase in PR1 mRNA level at 1 mg/pot applied as soil-drench measured after 24 hr by Northern blot analysis relative to control; format: functional, organism-based
Nicotiana tabacum [5] = assay: Induction of N-gene mediated systemic acquired resistance against TMV in Nicotiana tabacum cv. Xanthi nc (tobacco) assessed as lesion size at 0.1 mg/pot applied by soil-drench 5 days prior to infection measured after 5 days relative to control; format: functional
Nicotiana tabacum [6] = assay: Induction of systemic acquired resistance in Nicotiana tabacum cv. Xanthi nc (tobacco) assessed as increase in PR5 mRNA level at 0.01 to 0.5 mg/ml applied as foliar spray measured after 4 days by Northern blot analysis relative to control; format: functional, organism-based
Nicotiana tabacum [7] = assay: Induction of systemic acquired resistance in Nicotiana tabacum cv. Xanthi nc (tobacco) assessed as effect on free salicylic acid level in leaves at 1 mg/pot applied as soil-drench measured up to 7 days by fluorometric analysis relative to control; format: functional, organism-based
Nicotiana tabacum [8] = assay: Induction of systemic acquired resistance in Nicotiana tabacum cv. Xanthi nc (tobacco) assessed as increase in PR1 mRNA level at 0.01 to 0.5 mg/ml applied as foliar spray measured after 4 days by Northern blot analysis relative to control; format: functional, organism-based
Nicotiana tabacum [9] = assay: Induction of N-gene mediated systemic acquired resistance against TMV in Nicotiana tabacum cv. Xanthi nc (tobacco) assessed as lesion size at 10 mg/pot applied by soil-drench 5 days prior to infection measured after 5 days relative to control; format: functional
Nicotiana tabacum [10] = assay: Induction of systemic acquired resistance in Nicotiana tabacum cv. Xanthi nc (tobacco) assessed as increase in PR2 mRNA level at 0.01 to 0.5 mg/ml applied as foliar spray measured after 4 days by Northern blot analysis relative to control; format: functional, organism-based
Nicotiana tabacum [11] = assay: Induction of systemic acquired resistance in transgenic Nicotiana tabacum cv. Xanthi nc (tobacco) expressing bacterial NahG assessed as increase in PR1 mRNA level at 1 to 2 mg/pot applied as soil-drench measured after 4 days by Northern blot analysis relative to control; format: functional, organism-based
Nicotiana tabacum [12] = assay: Induction of systemic acquired resistance in Nicotiana tabacum cv. Xanthi nc (tobacco) assessed as increase in PR5 mRNA level at 1 to 2 mg/pot applied as soil-drench measured after 4 days by Northern blot analysis relative to control; format: functional, organism-based
Nicotiana tabacum [13] = assay: Induction of systemic acquired resistance in Nicotiana tabacum cv. Xanthi nc (tobacco) assessed as increase in PR2 mRNA level at 1 to 2 mg/pot applied as soil-drench measured after 4 days by Northern blot analysis relative to control; format: functional, organism-based
[14] = system: Pseudomonas amygdali pv. tabaci; assay: Antibacterial activity against Pseudomonas syringae pv. tabaci up to 500 ug/ml; format: functional, organism-based
Nicotiana tabacum [15] = assay: Induction of systemic acquired resistance against Pseudomonas syringae pv. tabaci in Nicotiana tabacum cv. Xanthi nc (tobacco) assessed as decrease in Nicotiana tabacum (tobacco) wildfire disease symptoms at 1 to 2 mg/pot applied as soil-drench 5 days prior to infection measured after 3 days relative to control; format: functional, organism-based
Nicotiana tabacum [16] = assay: Induction of systemic acquired resistance in Nicotiana tabacum cv. Xanthi nc (tobacco) assessed as effect on total salicylic acid level in leaves at 1 mg/pot applied as soil-drench measured up to 7 days by fluorometric analysis relative to control; format: functional, organism-based
Nicotiana tabacum [17] = assay: Induction of N-gene mediated systemic acquired resistance against TMV in Nicotiana tabacum cv. Xanthi nc (tobacco) assessed as lesion size at 1 mg/pot applied by soil-drench 5 days prior to infection measured after 5 days relative to control; format: functional
Nicotiana tabacum [18] = assay: Induction of systemic acquired resistance in transgenic Nicotiana tabacum cv. Xanthi nc (tobacco) expressing bacterial NahG assessed as increase in PR1 mRNA level at 0.01 to 0.5 mg/ml applied as foliar spray measured after 4 days by Northern blot analysis relative to control; format: functional, organism-based
Nicotiana tabacum [19] = assay: (§1) Induction of systemic acquired resistance against Pseudomonas syringae pv. tabaci in Nicotiana tabacum cv. Xanthi nc (tobacco) assessed as inhibition of bacterial growth in infected tissues at 1 to 2 mg/pot applied as soil-drench 5 days prior to infection measured after 3 days relative to control; format: functional, organism-based
Nicotiana tabacum [20] = assay: as §1, with “tabaci in transgenic Nicotiana tabacum” for “tabaci in Nicotiana tabacum”, “nc (tobacco) expressing bacterial NahG assessed as” for “nc (tobacco) assessed as”; format: functional, organism-based
Nicotiana tabacum [21] = assay: Induction of systemic acquired resistance in Nicotiana tabacum cv. Xanthi nc (tobacco) assessed as increase in PR1 mRNA level at 1 to 2 mg/pot applied as soil-drench measured after 4 days by Northern blot analysis relative to control; format: functional, organism-based

SMILES: CSC(=O)c1cccc2nnsc12
- Activity (Nicotiana tabacum [1]): Active
- Activity (Nicotiana tabacum [2]): Dose-dependent effect

SMILES: Cn1nc(Cl)cc1C(=O)O [3-CHLORO-1-METHYL-1H-PYRAZOLE-5-CARBOXYLIC ACID]
- Activity (Nicotiana tabacum [3]): Active
- Activity (Nicotiana tabacum [4]): Active
- Activity (Nicotiana tabacum [5]): 50%
- Activity (Nicotiana tabacum [6]): Active
- Activity (Nicotiana tabacum [7]): inactive
- Activity (Nicotiana tabacum [8]): Active
- Activity (Nicotiana tabacum [9]): <10%
- Activity (Nicotiana tabacum [10]): Active
- Activity (Nicotiana tabacum [11]): Active
- Activity (Nicotiana tabacum [12]): Active
- Activity (Nicotiana tabacum [13]): Active
- Activity [14]: inactive
- Activity (Nicotiana tabacum [15]): Active
- Activity (Nicotiana tabacum [16]): inactive
- Activity (Nicotiana tabacum [17]): <10%
- Activity (Nicotiana tabacum [18]): Active
- Activity (Nicotiana tabacum [19]): Active
- Activity (Nicotiana tabacum [20]): Active
- Activity (Nicotiana tabacum [21]): Active
- Activity (Nicotiana tabacum [2]): Dose-dependent effect
